Experimental data taken from PMC3907537, “Evaluation of the Endothelin Receptor Antagonists Ambrisentan, Bosentan, Macitentan, and Sitaxsentan as Hepatobiliary Transporter Inhibitors and Substrates in Sandwich-Cultured Human Hepatocytes” (PLoS ONE, 2014).
“And” between values parts separate entries of the source, which are not always exact repeats. Identical values can stand only once. Like-named read-outs stand apart in the source and are kept apart here.

Legend:
BCRP = biological target: T1, BCRP (Homo sapiens, UniProt Q9UNQ0); experiment: BCRP inhibition in MDCKII-ABCG2 cells; assay type: cell-based; conditions: mean ± SD of 3 independent studies in duplicate, tested 0.14–100 µM
T1 construct: host or cells: MDCKII
T1 sequence (Q9UNQ0 1-655): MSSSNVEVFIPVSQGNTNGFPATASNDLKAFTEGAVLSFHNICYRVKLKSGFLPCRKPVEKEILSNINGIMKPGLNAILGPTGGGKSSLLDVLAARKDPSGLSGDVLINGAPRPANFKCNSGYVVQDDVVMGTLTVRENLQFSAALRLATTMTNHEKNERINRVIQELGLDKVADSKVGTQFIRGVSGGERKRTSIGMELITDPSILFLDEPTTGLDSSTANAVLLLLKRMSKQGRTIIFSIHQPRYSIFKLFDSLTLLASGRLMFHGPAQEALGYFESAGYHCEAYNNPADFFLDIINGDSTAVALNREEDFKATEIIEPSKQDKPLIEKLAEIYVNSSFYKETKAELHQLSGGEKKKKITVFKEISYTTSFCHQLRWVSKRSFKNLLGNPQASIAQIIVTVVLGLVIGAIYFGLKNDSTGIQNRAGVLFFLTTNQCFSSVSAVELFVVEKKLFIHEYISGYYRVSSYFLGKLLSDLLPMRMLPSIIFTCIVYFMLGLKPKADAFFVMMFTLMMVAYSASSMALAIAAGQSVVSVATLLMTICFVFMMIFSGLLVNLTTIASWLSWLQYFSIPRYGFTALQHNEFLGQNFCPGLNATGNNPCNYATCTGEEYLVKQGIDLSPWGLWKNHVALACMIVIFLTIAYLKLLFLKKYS
From the text: Chinese Hamster Ovary (CHO) cells were obtained from Professor B. Stieger’s laboratory at University of Zurich, Zurich, Switzerland. Madin-Darby Canine Kidney strain II (MDCKII) cells were obtained from Nederlands Kanker Instituut (NKI), Amsterdam, Netherlands. NTCP-CHO cells, BSEP and MRP2 membrane vesicles were developed and validated at Solvo Biotechnology, Budaors, Hungary.
MDCKII cells were maintained in DMEM with sodium pyruvate, Glutmax, 1% Penicillin/Streptomycin and 10% FBS in an incubator set at 37°C, 90% humidity and 5% CO2. MDCKII cells were seeded in 96-well black cell culture plates with clear bottoms at a density of 5×10^4 cells/well for Pgp and 2×10^4 cells/well for BCRP and grown to confluence. For the Pgp assay, test compounds were serially diluted in DMSO and then added into in cell culture medium (without FBS) containing 10 µM Calcein AM and incubated for 1 h. Following the removal of media containing Calcein AM and test compound, cells were washed five times with […] phosphate buffered saline containing magnesium and calcium (PBS). Wells were analyzed for Calcein AM fluorescence at an excitation of 494 nm and an emission of 517 nm. For the BCRP assay, test compounds were serially diluted DMSO and then spiked in cell culture medium (without FBS) containing 1 µM pheophorbide a (PhA) and incubated for 18 hours with MDCKII-ABCG2 cells. Following the removal of media containing PhA and test compound, cells were then washed five times with PBS. Wells were analyzed for PhA fluorescence at an excitation of 415 nm and an emission of 675 nm.
All assays were performed in duplicate. IC50 was defined as the test article concentration needed to inhibit the maximal transporter specific accumulation by 50%. IC50 values were calculated using non-linear fitting of % inhibition versus concentration to a sigmoidal curve with a variable Hill Coefficient using GraphPad Prism 5 (GraphPad Software Inc., San Diego, CA).

fresh human hepatocytes = experiment: Cellular uptake of bosentan and macitentan into fresh human hepatocytes with or without transport inhibitors; assay type: in vitro ADME; conditions: 300 nM
Protocol: The cellular uptake of bosentan and macitentan was determined in fresh human hepatocytes purchased from Celsis/IVT (Baltimore, MD) or Life Technologies (Foster City, CA). Cells were pre-incubated in Krebs-Henseleit Buffer containing 5% bovine serum albumin for 30 min at 37°C prior to assay. Cells were then co-incubated in the presence and absence of an inhibitor cocktail containing 40 µM rifampicin and 5 µM of cyclosporin A for 15 min. Test compounds bosentan and macitentan were diluted to 3 fold of final target concentration in the same assay buffer and equilibrated at 37°C for 30 min. The uptake assay was initiated by adding 50 µL of test compound solution to the 48-well plate containing 100 µL cell suspension, mixed and incubated at 37°C for 30, 60 and 90 sec. Final cell density was 2×10^6 cells/mL with a final test compound concentration of 300 nM. The reaction mixture was overlaid onto pre-prepared microcentrifuge tubes containing 100 µL of 2 N NaOH (bottom layer) and 100 µL of filtration oil (middle layer; 74.5∶25.5 silicon oil:mineral oil mix) followed by centrifugation at 13,000 g for 30 sec. The samples were allowed to sit at room temperature for 2 h and then frozen at −80°C. The microcentrifuge tubes were then cut and the bottom layer containing the cell lysate collected. HCl solution was added to neutralize the solution. Samples were extracted with organic solvents for analysis by liquid chromatography coupled to tandem mass spectrometry (LC/MS/MS).

OATP1B3 = biological target: T2, OATP1B3 (Homo sapiens, UniProt Q9NPD5); conditions: cited from earlier work
T2 construct: host or cells: CHO
T2 sequence (Q9NPD5 1-702): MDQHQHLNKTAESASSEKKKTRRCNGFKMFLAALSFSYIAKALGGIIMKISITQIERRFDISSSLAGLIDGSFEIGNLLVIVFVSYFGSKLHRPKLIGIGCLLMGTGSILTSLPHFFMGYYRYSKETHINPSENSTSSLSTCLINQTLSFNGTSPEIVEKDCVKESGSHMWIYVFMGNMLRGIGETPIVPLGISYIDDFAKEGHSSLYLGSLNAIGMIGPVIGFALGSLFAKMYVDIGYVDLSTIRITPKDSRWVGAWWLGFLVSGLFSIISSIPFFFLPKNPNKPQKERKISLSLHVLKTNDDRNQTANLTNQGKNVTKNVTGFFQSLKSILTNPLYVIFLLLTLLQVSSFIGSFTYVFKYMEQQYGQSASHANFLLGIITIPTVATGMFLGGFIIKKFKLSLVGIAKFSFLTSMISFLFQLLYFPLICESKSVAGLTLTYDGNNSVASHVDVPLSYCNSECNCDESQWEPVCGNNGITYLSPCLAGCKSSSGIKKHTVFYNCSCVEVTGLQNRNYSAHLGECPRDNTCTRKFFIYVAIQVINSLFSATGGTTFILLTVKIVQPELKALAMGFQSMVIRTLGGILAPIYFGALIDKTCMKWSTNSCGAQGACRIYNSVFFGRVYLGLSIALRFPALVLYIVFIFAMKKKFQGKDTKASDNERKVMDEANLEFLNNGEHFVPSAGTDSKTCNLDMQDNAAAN

[1] = set-up: method as in PMID 22189899; conditions: plasma pharmacokinetics in patients ref 36; cited from earlier work
[2] = cited from earlier work

SMILES	IC50 (BCRP) [µM]	cellular uptake relative to that of bosentan (fresh human hepatocytes; human)	IC50 (OATP1B3; Bruderer et al. ref 36) [µM]	IC50 (OATP1B3) [µM]	increase in macitentan exposure on coadministration with cyclosporin A [1] [%]	increase in macitentan trough concentration on coadministration with cyclosporin A [1] [%]	patients with serum aminotransferase concentrations >3 times ULN ([2]; ARIES studies, n = 261 ref 11)	incidence of elevated aminotransferase >3 times ULN ([2]; ARIES-E long-term extension, mean follow-up of 1.4 years ref 12) [%]	reduction of cellular uptake in the presence of transport inhibitors (fresh human hepatocytes; 40 µM rifampicin plus 5 µM cyclosporin A, fresh human hepatocytes) [%]	cellular uptake in the absence of transport inhibitors (fresh human hepatocytes; fresh primary human hepatocytes, n = 4 donors)
CCCNS(=O)(=O)Nc1ncnc(OCCOc2ncc(Br)cn2)c1-c1ccc(Br)cc1 [macitentan]	75 ± 37	approximately 7 times	11.8	10	10	38				
COC(c1ccccc1)(c1ccccc1)[C@H](Oc1nc(C)cc(C)n1)C(=O)O [ambrisentan]	> 100						none	1.8		
COc1ccccc1Oc1c(NS(=O)(=O)c2ccc(C(C)(C)C)cc2)nc(-c2ncccn2)nc1OCCO [bosentan]	> 100								46	4.6±0.7 pmol/million cells and 4.6 pmol/million cells
